Results as given in US8969390B2, “Composition containing sorbitan monocaprylate and antimicrobial substances” (Clariant Finance (BVI) Limited, priority 2009, dated 2015).

Columns and labels:
[1] = system: Pseudomonas aeruginosa, Staphylococcus aureus, Candida albicans and Aspergillus brasiliensis; test: Challenge test according to Ph. Eur. Chapter 5.1.3, overall preservation (all test organisms); assay type: cell-based; conditions: formulation A (cream)
Protocol: (§1) The following examples show results of challenge tests that were carried out according to the requirements of Ph. Eur. Chapter 5.1.3. The following test organisms are used here as representatives for microorganisms: Pseudomonas aeruginosa (gram-negative; abbreviated below as “P. a.”), Staphylococcus aureus (gram-positive; abbreviated below as “St. a.”), Candida albicans (yeast fungus; abbreviated below as “C. a.”) and Aspergillus brasiliensis (mold fungus; abbreviated below as “A. b.”). In a challenge test, a cosmetic, dermatological or pharmaceutical formulation is accurately considered as adequately preserved if all four test organisms are passed at least with a B criterion. An A criterion means an outstanding preservation, a B criterion, means an adequate preservation and with an F criterion the test is considered overall as not passed. As a comparison, an unpreserved sample of the respective formulation is additionally tested. The further abbreviations SC=sorbitan monocaprylate, Octopirox®=piroctone olamine apply below.
(§2) The assignment of the A, B and F criteria is directed by the level of the microorganism count reduction within a fixed time interval, in which only the logarithmic reduction is considered.

Aspergillus brasiliensis = test: Challenge test according to Ph. Eur. Chapter 5.1.3, Aspergillus brasiliensis; assay type: cell-based; conditions: formulation B (shampoo), use concentration 0.05% piroctone olamine
Protocol: as §1, §2

Compound	adequate preservation of formulation A ([1]; 0.4% benzoic acid as individual antimicrobial active ingredient)	protection of formulation B against growth of mold fungi (Aspergillus brasiliensis)	adequate preservation of formulation A ([1]; use concentration 0.05% piroctone olamine)
O=C(O)c1ccccc1 [Benzoic acid, benzoic acid, reference compound]	does not suffice	–	–
Cc1cc(CC(C)CC(C)(C)C)n(O)c(=O)c1.NCCO (stereo not drawn) [Octopirox ®, piroctone olamine]	–	cannot adequately protect	cannot be preserved adequately
